In patent US11529361B2, “Halogenated salicylanilides for treating Clostridium infections” (UNION therapeutics A/S, priority 2015, dated 2022):
≈ marks a conversion by molar mass, not a printed value. Where two headings read alike, the source gives them in different places.

How the values were obtained:
rats = settings: p.o., cited from earlier work
[1] = system: C. difficile clinical isolates; test: MIC determination by microbroth dilution per CLSI guideline (Example 1); type: cell-based, Clostridium difficile; settings: Clostridioides difficile
[2] = system: 24 clinical isolate strains of C. difficile; test: Additional MIC determinations, antibacterial activity by OD600 (Example 3); type: cell-based, Clostridium difficile
[3] = system: Clostridium difficile 7-6011209; type: cell-based
mice = settings: p.o.; cited from earlier work
[4] = via the urinary tract or by enzymatic metabolism in the liver; cited from earlier work
cats = settings: p.o.; cited from earlier work
[5] = cited from earlier work
[6] = read-out: C. difficile Strain 7-6011209 MIC
[7] = read-out: C. difficile Strain 12055 MIC

## O=C(Nc1cc(Cl)cc(Cl)c1O)c1c(O)c(Cl)cc(Cl)c1Cl [Oxyclozanide]
rats
  LD50: 980 to 3519 mg/kg
[1]; Table 3, strain 7-6011209, read-out: C. difficile Strain 7-6011209 MIC
  MIC: 0.25 µg/mL (≈ 0.623 µM)
[1]; Table 3, strain 12055, read-out: C. difficile Strain 12055 MIC
  MIC: 0.25 µg/mL (≈ 0.623 µM)
[2]; strain 7-5085357 (ST028)
  MIC: 0.016 µg/mL (≈ 0.0399 µM)
[2]; strain 7-6011209 (ST002)
  MIC: < 0.008 µg/mL
[2]; strain 7-6778909 (ST016)
  MIC: < 0.008 µg/mL
[2]; strain 7-6854508 (ST013)
  MIC: < 0.008 µg/mL
[2]; strain 7-6870430 (ST001)
  MIC: < 0.008 µg/mL
[2]; strain 7-7104022 (ST103)
  MIC: < 0.008 µg/mL
[2]; strain 7-7116411 (ST005)
  MIC: 0.125 µg/mL (≈ 0.311 µM)
[2]; strain 7-7124449 (ST009)
  MIC: 0.031 µg/mL (≈ 0.0772 µM)
[2]; strain 7-7149204 (ST006)
  MIC: < 0.008 µg/mL
[2]; strain 7-7150288 (ST003)
  MIC: < 0.008 µg/mL
[2]; strain 7-7150318 (ST059)
  MIC: 0.016 µg/mL (≈ 0.0399 µM)
[2]; strain 7-7150628 (ST034)
  MIC: 0.31 µg/mL (≈ 0.772 µM)
[2]; strain 7-7150997 (ST049)
  MIC: < 0.008 µg/mL
[2]; strain 7-7154992 (ST139)
  MIC: < 0.008 µg/mL
[2]; strain 7-7200552 (ST017)
  MIC: 0.25 µg/mL (≈ 0.623 µM)
[2]; strain 12055
  MIC: 0.016 µg/mL (≈ 0.0399 µM)
[2]; strain 12060
  MIC: 0.031 µg/mL (≈ 0.0772 µM)
[2]; strain 12061
  MIC: 0.016 µg/mL (≈ 0.0399 µM)
[2]; strain 12062
  MIC: < 0.008 µg/mL
[2]; strain 12063
  MIC: 0.016 µg/mL (≈ 0.0399 µM)
[2]; strain 12064
  MIC: < 0.008 µg/mL
[2]; strain 12065
  MIC: 0.031 µg/mL (≈ 0.0772 µM)
[2]; strain 12066
  MIC: 0.125 µg/mL (≈ 0.311 µM)

## O=C(Nc1ccc(Br)cc1)c1cc(Br)cc(Br)c1O [Tribromsalan, 3,4′,5-tribromosalicylanilide]
[1]; [6]
  MIC: 0.125 µg/mL (≈ 0.278 µM)
[1]; [7]
  MIC: 0.25 µg/mL (≈ 0.556 µM)
[2]; strain 7-5085357 (ST028)
  MIC: 0.016 µg/mL (≈ 0.0356 µM)
[2]; strain 7-6011209 (ST002)
  MIC: < 0.008 µg/mL
[2]; strain 7-6778909 (ST016)
  MIC: < 0.008 µg/mL
[2]; strain 7-6854508 (ST013)
  MIC: 0.031 µg/mL (≈ 0.0689 µM)
[2]; strain 7-6870430 (ST001)
  MIC: 0.016 µg/mL (≈ 0.0356 µM)
[2]; strain 7-7104022 (ST103)
  MIC: 1 µg/mL (≈ 2.22 µM)
[2]; strain 7-7116411 (ST005)
  MIC: < 0.008 µg/mL
[2]; strain 7-7124449 (ST009)
  MIC: 0.063 µg/mL (≈ 0.14 µM)
[2]; strain 7-7149204 (ST006)
  MIC: < 0.008 µg/mL
[2]; strain 7-7150288 (ST003)
  MIC: < 0.008 µg/mL
[2]; strain 7-7150318 (ST059)
  MIC: < 0.008 µg/mL
[2]; strain 7-7150628 (ST034)
  MIC: 0.031 µg/mL (≈ 0.0689 µM)
[2]; strain 7-7150997 (ST049)
  MIC: 0.16 µg/mL (≈ 0.356 µM)
[2]; strain 7-7154992 (ST139)
  MIC: 0.063 µg/mL (≈ 0.14 µM)
[2]; strain 7-7200552 (ST017)
  MIC: 0.25 µg/mL (≈ 0.556 µM)
[2]; strain 12055
  MIC: 0.016 µg/mL (≈ 0.0356 µM)
[2]; strain 12060
  MIC: 0.063 µg/mL (≈ 0.14 µM)
[2]; strain 12061
  MIC: 0.016 µg/mL (≈ 0.0356 µM)
[2]; strain 12062
  MIC: < 0.008 µg/mL
[2]; strain 12063
  MIC: 0.016 µg/mL (≈ 0.0356 µM)
[2]; strain 12064
  MIC: < 0.008 µg/mL
[2]; strain 12065
  MIC: 0.016 µg/mL (≈ 0.0356 µM)
[2]; strain 12066
  MIC: 0.031 µg/mL (≈ 0.0689 µM)

## O=C(Nc1ccc(Oc2ccc(Cl)cc2)c(Cl)c1)c1cc(I)cc(I)c1O [Rafoxanide]
[3]
  formation of heat-resistant spores over time: suppressed formation of spores throughout the 96 hour study period
rats; median over studies
  LD50, median: > 1490 mg/kg
mice
  LD50: 232 to 300 mg/kg
[1]; [6]
  MIC: < 0.08 µg/mL
[1]; [7]
  MIC: < 0.08 µg/mL
[2]; strain 7-5085357 (ST028)
  MIC: 0.016 µg/mL (≈ 0.0256 µM)
[2]; strain 7-6011209 (ST002)
  MIC: < 0.008 µg/mL
[2]; strain 7-6778909 (ST016)
  MIC: < 0.008 µg/mL
[2]; strain 7-6854508 (ST013)
  MIC: < 0.008 µg/mL
[2]; strain 7-6870430 (ST001)
  MIC: < 0.008 µg/mL
[2]; strain 7-7104022 (ST103)
  MIC: < 0.008 µg/mL
[2]; strain 7-7116411 (ST005)
  MIC: 0.031 µg/mL (≈ 0.0495 µM)
[2]; strain 7-7124449 (ST009)
  MIC: 0.031 µg/mL (≈ 0.0495 µM)
[2]; strain 7-7149204 (ST006)
  MIC: < 0.008 µg/mL
[2]; strain 7-7150288 (ST003)
  MIC: < 0.008 µg/mL
[2]; strain 7-7150318 (ST059)
  MIC: < 0.008 µg/mL
[2]; strain 7-7150628 (ST034)
  MIC: 0.31 µg/mL (≈ 0.495 µM)
[2]; strain 7-7150997 (ST049)
  MIC: < 0.008 µg/mL
[2]; strain 7-7154992 (ST139)
  MIC: 0.016 µg/mL (≈ 0.0256 µM)
[2]; strain 7-7200552 (ST017)
  MIC: 0.063 µg/mL (≈ 0.101 µM)
[2]; strain 12055
  MIC: < 0.008 µg/mL
[2]; strain 12060
  MIC: 0.031 µg/mL (≈ 0.0495 µM)
[2]; strain 12061
  MIC: 0.016 µg/mL (≈ 0.0256 µM)
[2]; strain 12062
  MIC: 0.016 µg/mL (≈ 0.0256 µM)
[2]; strain 12063
  MIC: < 0.008 µg/mL
[2]; strain 12064
  MIC: < 0.008 µg/mL
[2]; strain 12065
  MIC: 0.016 µg/mL (≈ 0.0256 µM)
[2]; strain 12066
  MIC: 0.063 µg/mL (≈ 0.101 µM)

## O=C(Nc1ccc([N+](=O)[O-])cc1Cl)c1cc(Cl)ccc1O [Niclosamide, 2′,5-dichloro-4′-nitrosalicylanilide]
[4]
  clearance from the bloodstream: quickly cleared
cats
  LD50: > 1000 mg/kg
mice
  LD50: > 5000 mg/kg
[1]; isolate 7-5085357, read-out: MIC of clinical isolates of C. difficile
  MIC: 0.125 µg/mL
[1]; isolate 7-5779928, read-out: MIC of clinical isolates of C. difficile
  MIC: 0.25 µg/mL
[1]; isolate 7-6008526, read-out: MIC of clinical isolates of C. difficile
  MIC: 0.25 µg/mL
[1]; isolate 7-6011209, read-out: MIC of clinical isolates of C. difficile
  MIC: 0.06 µg/mL
[1]; isolate 7-6778909, read-out: MIC of clinical isolates of C. difficile
  MIC: 0.25 µg/mL
[1]; isolate 7-6854508, read-out: MIC of clinical isolates of C. difficile
  MIC: 0.125 µg/mL
[1]; isolate 7-6870430, read-out: MIC of clinical isolates of C. difficile
  MIC: 0.25 µg/mL
[1]; isolate 7-7104022, read-out: MIC of clinical isolates of C. difficile
  MIC: 0.125 µg/mL
[1]; isolate 7-7116411, read-out: MIC of clinical isolates of C. difficile
  MIC: 0.125 µg/mL
[1]; isolate 7-7124449, read-out: MIC of clinical isolates of C. difficile
  MIC: 0.125 µg/mL
[1]; isolate 7-7149204, read-out: MIC of clinical isolates of C. difficile
  MIC: 0.125 µg/mL
[1]; isolate 7-7150288, read-out: MIC of clinical isolates of C. difficile
  MIC: 0.125 µg/mL
[1]; isolate 7-7150318, read-out: MIC of clinical isolates of C. difficile
  MIC: 0.125 µg/mL
[1]; isolate 7-7150628, read-out: MIC of clinical isolates of C. difficile
  MIC: 0.125 µg/mL
[1]; isolate 7-7150997, read-out: MIC of clinical isolates of C. difficile
  MIC: 0.125 µg/mL
[1]; isolate 7-7151551, read-out: MIC of clinical isolates of C. difficile
  MIC: 0.25 µg/mL
[1]; isolate 7-7152701, read-out: MIC of clinical isolates of C. difficile
  MIC: 0.25 µg/mL
[1]; isolate 7-7153872, read-out: MIC of clinical isolates of C. difficile
  MIC: 0.5 µg/mL
[1]; isolate 7-7154712 (listed twice), read-out: MIC of clinical isolates of C. difficile
  MIC: 0.25 µg/mL
[1]; isolate 7-7154992, read-out: MIC of clinical isolates of C. difficile
  MIC: 0.25 µg/mL
[1]; isolate 7-7156197, read-out: MIC of clinical isolates of C. difficile
  MIC: 0.25 µg/mL
[1]; isolate 7-7200552, read-out: MIC of clinical isolates of C. difficile
  MIC: 0.25 µg/mL
[1]; isolate 7-7363761, read-out: MIC of clinical isolates of C. difficile
  MIC: 0.125 µg/mL
[1]; isolate 12055, read-out: MIC of clinical isolates of C. difficile
  MIC: 0.125 µg/mL
[1]; isolate 12060, read-out: MIC of clinical isolates of C. difficile
  MIC: 0.125 µg/mL
[1]; isolate 12061, read-out: MIC of clinical isolates of C. difficile
  MIC: 0.06 µg/mL
[1]; isolate 12062, read-out: MIC of clinical isolates of C. difficile
  MIC: 0.06 µg/mL
[1]; isolate 12063, read-out: MIC of clinical isolates of C. difficile
  MIC: 0.06 µg/mL
[1]; isolate 12064, read-out: MIC of clinical isolates of C. difficile
  MIC: 0.06 µg/mL
[1]; niclosamide, matches Table 2, read-out: Highest MIC observed
  MIC: 0.5 µg/mL (≈ 1.53 µM)
[1]; footnote b: data from tables herein
  MIC90: 0.06 to 0.25 µg/mL (≈ 0.183 to 0.764 µM)
[5]
  solubility in water: poorly soluble in water
